Molecules are shown by their SMILES.

In the test the test system is HDAC (Hela Nuclear Extract). The experiment in a line: In vitro HDAC fluorescent activity assay (Biomol kit, Fluor de Lys substrate) with Hela Nuclear Extract. It counts as biochemical. To be noted: compounds reduced with 30 mM DTT prior to analysis; diluted Hela Nuclear Extract; 37° C. for 1 hour; mean of duplicate samples. As to the method: In vitro HDAC assays were performed using a HDAC fluorescent activity assay kit (Biomol, UK) according to the manufacturer's instructions. Compounds were reduced prior to analysis; 1 mM compound was reduced with 30 mM DTT in DMSO overnight at room temperature, protected from light. Reactions were then set up in a 96-well plate. For each reaction 10 μl compound (5× required concentration in assay buffer) was mixed with […] diluted Hela Nuclear Extract (30-fold in assay buffer). Serial dilutions were set up for each compound. Reactions containing Hela extract only and assay buffer only were also set up. 25 μl diluted Fluor de Lys™ substrate (100-fold in assay buffer) was added to each reaction, which were then incubated at 37° C. for 1 hour. The reaction was stopped by addition of 50 μl Fluor de Lys™ Developer (20-fold dilution in assay buffer, plus TSA diluted 100-fold). The reactions were then incubated at room temperature for 10 minutes before fluorescence was measured using a CytoFluor II Fluorescence Multiwell Plate Reader and CytoFluor II software with filters set at […] for excitation and […] for emission. Inhibition of in vitro HDAC activity was determined for mean values of duplicate samples as percentages relative to HeLa extract only reactions. IC50 values were calculated using GraphPad Prism software.

The compound `CC(C)[C@H]1NC(=O)[C@@H](Cc2ccccc2)NC(=O)[C@@H](C)NC(=O)C[C@@H](/C=C/CCS)OC(=O)CNC1=O` [Compound 16, (6R,9R,12R,16S)-9-Benzyl-6-isopropyl-16-((E)-4-mercapto-but-1-enyl)-12-methyl-1-oxa-4,7,10,13-tetraaza-cyclohexadecane-2,5,8,11,14-pentaone] registered an IC50 of 47 ± 9.9 nM. As to `CC(=O)SCC/C=C/[C@@H]1CC(=O)N[C@H](C)C(=O)N[C@H](Cc2ccccc2)C(=O)N[C@H](C(C)C)C(=O)NCC(=O)O1` [Compound 17, Thioacetic acid S-[(E)-4-((6R,9R,12R,16S)-9-benzyl-6-isopropyl-12-methyl-2,5,8,11,14-pentaoxo-1-oxa-4,7,10,13-tetraaza-cyclohexadec-16-yl)-but-3-enyl]ester], the IC50 worked out at 126 ± 5.3 nM.

As a reminder, the IC50 is the concentration that inhibits the measured activity by half. Low values mean greater potency in that assay, high ones weaker potency in that assay.

Source of the values: US8865655B2, “Depsipeptides and their therapeutic use” (Karus Therapeutics Limited, priority 2006, dated 2014).
